Reference: PubChem BioAssay (NCI)
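A five-concentration, 48-hour dose response in 96-well plates underlies each endpoint, interpolated linearly between surrounding concentrations. At the TGI there is no net growth.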

Assays:
Test in all cases: NCI anticancer screen, dose series, 48 h
786-0 renal = tested on: 786-0 renal
A498 renal = tested on: A498 renal
A549 NSCLC = tested on: A549 NSCLC
ACHN renal = tested on: ACHN renal
CAKI-1 renal = tested on: CAKI-1 renal
COLO 205 colon = tested on: COLO 205 colon
DLD-1 colon = tested on: DLD-1 colon
DMS 114 small cell lung = tested on: DMS 114 small cell lung
DMS 273 small cell lung = tested on: DMS 273 small cell lung
EKVX NSCLC = tested on: EKVX NSCLC
HCC-2998 colon = tested on: HCC-2998 colon
HCT-116 colon = tested on: HCT-116 colon
HCT-15 colon = tested on: HCT-15 colon
HL-60(TB) leukemia = tested on: HL-60(TB) leukemia
HOP-62 NSCLC = tested on: HOP-62 NSCLC
HOP-92 NSCLC = tested on: HOP-92 NSCLC
HT29 colon = tested on: HT29 colon
IGROV1 ovarian = tested on: IGROV1 ovarian
K-562 leukemia = tested on: K-562 leukemia
KM12 colon = tested on: KM12 colon
KM20L2 colon = tested on: KM20L2 colon
LOX IMVI melanoma = tested on: LOX IMVI melanoma
LXFL 529 NSCLC = tested on: LXFL 529 NSCLC
M14 melanoma = tested on: M14 melanoma
M19-MEL melanoma = tested on: M19-MEL melanoma
MALME-3M melanoma = tested on: MALME-3M melanoma
MOLT-4 leukemia = tested on: MOLT-4 leukemia
NCI-H226 lung = tested on: NCI-H226 lung
NCI-H23 lung = tested on: NCI-H23 lung
NCI-H460 lung = tested on: NCI-H460 lung
NCI-H522 lung = tested on: NCI-H522 lung
OVCAR-3 ovarian = tested on: OVCAR-3 ovarian
OVCAR-4 ovarian = tested on: OVCAR-4 ovarian
OVCAR-5 ovarian = tested on: OVCAR-5 ovarian
OVCAR-8 ovarian = tested on: OVCAR-8 ovarian
RPMI-8226 leukemia = tested on: RPMI-8226 leukemia
RXF 393 renal = tested on: RXF 393 renal
SF-268 CNS = tested on: SF-268 CNS
SF-295 CNS = tested on: SF-295 CNS
SF-539 CNS = tested on: SF-539 CNS
SK-MEL-28 melanoma = tested on: SK-MEL-28 melanoma
SK-MEL-5 melanoma = tested on: SK-MEL-5 melanoma
SK-OV-3 ovarian = tested on: SK-OV-3 ovarian
SN12C renal = tested on: SN12C renal
SNB-19 CNS = tested on: SNB-19 CNS
SNB-75 CNS = tested on: SNB-75 CNS
SNB-78 CNS = tested on: SNB-78 CNS
SR leukemia = tested on: SR leukemia
SW-620 colon = tested on: SW-620 colon
TK-10 renal = tested on: TK-10 renal
U251 CNS = tested on: U251 CNS
UACC-257 melanoma = tested on: UACC-257 melanoma
UACC-62 melanoma = tested on: UACC-62 melanoma
UO-31 renal = tested on: UO-31 renal
XF 498 CNS = tested on: XF 498 CNS
CCRF-CEM leukemia = tested on: CCRF-CEM leukemia
HOP-18 NSCLC = tested on: HOP-18 NSCLC
SK-MEL-2 melanoma = tested on: SK-MEL-2 melanoma

**Q.** Which results are given for O=C(CSSCC(=O)Nc1ccc(Br)cc1)Nc1ccc(Br)cc1?
**A.** TGI (786-0 renal): 31.4 µM; TGI (A498 renal): 34.1 µM; TGI (A549 NSCLC): 35.8 µM; TGI (ACHN renal): 30 µM; TGI (CAKI-1 renal): 50.3 µM; TGI (COLO 205 colon): 74 µM; TGI (DLD-1 colon): 35.9 µM; TGI (DMS 114 small cell lung): 28.2 µM; TGI (DMS 273 small cell lung): 30.8 µM; TGI (EKVX NSCLC): 48.9 µM; TGI (HCC-2998 colon): 50.6 µM; TGI (HCT-116 colon): 28.1 µM; TGI (HCT-15 colon): 46.6 µM; TGI (HL-60(TB) leukemia): 48.5 µM; TGI (HOP-62 NSCLC): 25.9 µM; TGI (HOP-92 NSCLC): 34.1 µM; TGI (HT29 colon): 47.6 µM; TGI (IGROV1 ovarian): 39 µM; TGI (K-562 leukemia): > 100 µM; TGI (KM12 colon): 55.4 µM; TGI (KM20L2 colon): 29.2 µM; TGI (LOX IMVI melanoma): 26.3 µM; TGI (LXFL 529 NSCLC): 31.2 µM; TGI (M14 melanoma): 32.7 µM; TGI (M19-MEL melanoma): 34.2 µM; TGI (MALME-3M melanoma): 43 µM; TGI (MOLT-4 leukemia): 67 µM; TGI (NCI-H226 lung): 31.7 µM; TGI (NCI-H23 lung): 35.2 µM; TGI (NCI-H460 lung): 37.7 µM; TGI (NCI-H522 lung): 24.8 µM; TGI (OVCAR-3 ovarian): 32.1 µM; TGI (OVCAR-4 ovarian): 35.4 µM; TGI (OVCAR-5 ovarian): 41.7 µM; TGI (OVCAR-8 ovarian): 31.6 µM; TGI (RPMI-8226 leukemia): 64.3 µM; TGI (RXF 393 renal): 33.2 µM; TGI (SF-268 CNS): 26.6 µM; TGI (SF-295 CNS): 28 µM; TGI (SF-539 CNS): 31.6 µM; TGI (SK-MEL-28 melanoma): 32.4 µM; TGI (SK-MEL-5 melanoma): 45.8 µM; TGI (SK-OV-3 ovarian): 40 µM; TGI (SN12C renal): 30.2 µM; TGI (SNB-19 CNS): 29.4 µM; TGI (SNB-75 CNS): 40.1 µM; TGI (SNB-78 CNS): 32.5 µM; TGI (SR leukemia): 37.9 µM; TGI (SW-620 colon): 29.4 µM; TGI (TK-10 renal): 30.5 µM; TGI (U251 CNS): 27.6 µM; TGI (UACC-257 melanoma): 37.6 µM; TGI (UACC-62 melanoma): 29.3 µM; TGI (UO-31 renal): 31.8 µM; TGI (XF 498 CNS): 34.5 µM

**Q.** What does the source list for COC(=O)C1[C@H](c2ccc3c(c2)OCO3)OC(=O)[C@]1(C(=O)OC)C(=O)c1ccc(OC)c(OC)c1 (some centres undefined)?
**A.** TGI (786-0 renal): > 100 µM; TGI (A498 renal): > 100 µM; TGI (ACHN renal): > 100 µM; TGI (CAKI-1 renal): > 100 µM; TGI (CCRF-CEM leukemia): > 100 µM; TGI (COLO 205 colon): > 100 µM; TGI (DLD-1 colon): 40.1 µM; TGI (DMS 273 small cell lung): 71.6 µM; TGI (EKVX NSCLC): > 100 µM; TGI (HCC-2998 colon): > 100 µM; TGI (HCT-15 colon): > 100 µM; TGI (HL-60(TB) leukemia): 55.2 µM; TGI (HOP-18 NSCLC): > 100 µM; TGI (HOP-62 NSCLC): > 100 µM; TGI (HOP-92 NSCLC): > 100 µM; TGI (HT29 colon): > 100 µM; TGI (IGROV1 ovarian): > 100 µM; TGI (K-562 leukemia): > 100 µM; TGI (KM12 colon): > 100 µM; TGI (KM20L2 colon): > 100 µM; TGI (LOX IMVI melanoma): 36.1 µM; TGI (LXFL 529 NSCLC): > 100 µM; TGI (M14 melanoma): > 100 µM; TGI (M19-MEL melanoma): > 100 µM; TGI (MALME-3M melanoma): > 100 µM; TGI (MOLT-4 leukemia): 87.2 µM; TGI (NCI-H226 lung): > 100 µM; TGI (NCI-H23 lung): > 100 µM; TGI (NCI-H460 lung): > 100 µM; TGI (OVCAR-3 ovarian): > 100 µM; TGI (OVCAR-4 ovarian): > 100 µM; TGI (OVCAR-5 ovarian): > 100 µM; TGI (OVCAR-8 ovarian): > 100 µM; TGI (RPMI-8226 leukemia): > 100 µM; TGI (SF-295 CNS): > 100 µM; TGI (SK-MEL-2 melanoma): 79.9 µM; TGI (SK-MEL-5 melanoma): > 100 µM; TGI (SK-OV-3 ovarian): > 100 µM; TGI (SN12C renal): > 100 µM; TGI (SNB-75 CNS): > 100 µM; TGI (SNB-78 CNS): > 100 µM; TGI (SR leukemia): > 100 µM; TGI (SW-620 colon): > 100 µM; TGI (TK-10 renal): > 100 µM; TGI (U251 CNS): > 100 µM; TGI (UACC-257 melanoma): > 100 µM; TGI (UACC-62 melanoma): > 100 µM; TGI (UO-31 renal): > 100 µM; TGI (XF 498 CNS): > 100 µM
